How the values were obtained:
P. acnes 706486 = experiment: Bacteriocidal effect of IAA with or without IPL irradiation on P. acnes, colony count; format: cell-based, Propionibacterium acnes
Description: (§1) P. acnes 706486 and S. aureus W-1-14 was used for this experiment. Mueller Hinton II broth (Becton, Dickinson Co., Sparks, U.S.A) was used for culture of bacteria. The cultured S. aureus colony was dissolved with phosphate buffered saline (PBS, Invitrogen Co., NY, U.S.A) such that the McFarland turbidity became 0.5. The resultant bacterial solution was at the concentration of […]. Then, the bacterial solution was further diluted to the concentration of 1×10^8/ml and 10 μl of the bacterial solution was spread onto the Mueller Hinton II agar (Becton, Dickinson Co., Sparks, U.S.A) plate followed by drying in clean bench for 30 min. IAA was dissolved with Dulbecco's phosphate buffered saline (DPBS, Invitrogen Co., NY, U.S.A) to obtain samples of IAA concentration of 20 mM, 10 mM, 5 mM, 1 mM and 0.5 mM. Three minutes after adding 4 ml of 0 mM, 0.5 mM, 1 mM, 5 mM, 10 mM, and 20 mM IAA solution to 6 bacterial solution inoculated mediums respectively, Intermittent Pulse Laser (IPL, Ellipse Flex DDD, Denmark) was irradiated to the mediums. 10 J/cm^2 of the IPL of wavelength of 400 nm to 720 nm was irradiated to the mediums, using an applicator equipped with a filter. One minute after IPL irradiation, the mediums were washed for two times with PBS and incubated at 37° C. for 24 hrs and then the number of colonies was counted respectively. Four minutes after adding 4 ml of 0 mM, 0.5 mM, 1 mM, 5 mM, 10 mM, and 20 mM IAA solution to another 6 bacterial solution inoculated mediums, the mediums were treated as the above-mentioned process except that IPL was not irradiated, and then the number of colonies was counted respectively. The above-mentioned process was repeated except that P. acnes inoculated mediums were employed in place of S. aureus inoculated mediums and cultured in an anaerobic chamber substituted with nitrogen, and then the number of colonies was counted.

S. aureus W-1-14 = experiment: Bacteriocidal effect of IAA with or without IPL irradiation on S. aureus, colony count; format: cell-based, Staphylococcus aureus
Description: as §1

[1] = Improvement of acne by IAA and light, half-face, count of inflammatory lesions; format: in vivo
Text: IAA was applied to only half of face and 20 J of IPL was irradiated. The face was irradiated 3 times at 2 weeks intervals and the number of inflammatory lesions was counted.

[2] = Sebum secretion inhibition by IAA and IPL, half-face; format: in vivo
Description: As described in Example 2, IAA was applied to only half of face and 20 J of IPL was irradiated. The face was irradiated 3 times at 2 weeks intervals and the amount of sebum secretion was measured.

[3] = IAA with IPL, irradiated 3 times at 2 weeks intervals

With `O=C(O)Cc1c[nH]c2ccccc12` [IAA, Indole-3-acetic acid] the number of colonies (P. acnes 706486; 5 mM or more IAA solution, IPL not irradiated) was 68 % of control group, the growth of bacteria (P. acnes 706486; 20 mM IAA solution, with IPL irradiation) was “no growth of bacteria” and the “inhibitory effects on P. acnes proliferation” value (P. acnes 706486; IAA with IPL irradiation, 10 J/cm^2, 400 nm to 720 nm) was “dramatic inhibitory effects”. For the same molecule, the number of colonies (S. aureus W-1-14; 20 mM IAA solution, without IPL irradiation) was 60 % of control group, the number of colonies (S. aureus W-1-14; IPL irradiation and 0.5 mM IAA solution) was 63 % of control group and the number of colonies (S. aureus W-1-14; IPL irradiation and 1 mM IAA solution) was 32 % of control group. For the same molecule, the “Number of inflammatory lesion (mean ± SD), T1” value ([1]; IAA + IPL 20 J, after 2 weeks, n = 14, baseline T0 16.21 ± 9.18) was 15.50 ± 9.03, the “Number of inflammatory lesion (mean ± SD), T2” value ([1]; IAA + IPL 20 J, after 4 weeks, n = 14, baseline T0 16.21 ± 9.18) was 13.93 ± 8.54 and the “Number of inflammatory lesion (mean ± SD), T3” value ([1]; IAA + IPL 20 J, after 6 weeks, n = 14, baseline T0 16.21 ± 9.18) was 13.93 ± 8.30. The “Change in number of inflammatory lesion T1-T0 (mean ± SD)” value ([1]; IAA + IPL, 2 weeks versus baseline, p 0.246) was −0.71 ± 2.20, the “Change in number of inflammatory lesion T2-T0 (mean ± SD)” value ([1]; IAA + IPL, 4 weeks versus baseline, p 0.024) was −2.29 ± 3.36 and the “Change in number of inflammatory lesion T3-T0 (mean ± SD)” value ([1]; IAA + IPL, 6 weeks versus baseline, p 0.026) was −2.29 ± 3.41. For the same molecule, the “improvement of acne (number of inflammatory lesions)” value [1, 3] was “significant improvement”, the “sebum secretion (mean ± SD), T1” value ([2]; IAA + IPL 20 J, after 2 weeks, n = 14, baseline T0 99.64 ± 56.93) was 114.71 ± 63.83 and the “sebum secretion (mean ± SD), T2” value ([2]; IAA + IPL 20 J, after 4 weeks, n = 14, baseline T0 99.64 ± 56.93) was 70.43 ± 42.80. The “sebum secretion (mean ± SD), T3” value ([2]; IAA + IPL 20 J, after 6 weeks, n = 14, baseline T0 99.64 ± 56.93) was 65.79 ± 27.90, the “Change of sebum secretion T1-T0 (mean ± SD)” value ([2]; IAA + IPL, 2 weeks versus baseline, p 0.433) was 15.07 ± 69.70 and the “Change of sebum secretion T2-T0 (mean ± SD)” value ([2]; IAA + IPL, 4 weeks versus baseline, p 0.032) was −29.21 ± 45.67. For the same molecule, the “Change of sebum secretion T3-T0 (mean ± SD)” value ([2]; IAA + IPL, 6 weeks versus baseline, p 0.015) was −33.86 ± 44.98 and the “inhibitory effect of sebum secretion” value [2, 3] was “significant inhibitory effect of sebum secretion”.
